# In PMC11134387, “Cancer-Stem-Cell Phenotype-Guided Discovery of a Microbiota-Inspired Synthetic Compound Targeting NPM1 for Leukemia” (JACS Au, 2024):
# Entries after “also recorded” stand apart in the source; their conditions may differ.
# Columns and labels:
# FBXW7 = assay: Western blot of FBXW7 in OCI-AML3 cells; type: cell-based
# Experimental: (§1) We next studied the impact of UCM-13369 in the genes and/or expression levels of NPM1 and NPM1 C+ pathway components (Figure 4A), including the positive regulation of c-Myc[34] and the negative regulation of FBXW7 and the pro-apoptotic CASP8.[35] […] The inhibition of NPM1 was also observed in MOLM13 cells expressing WT NPM1 (Figure S1B).
# Assay (Bio-Rad Labo rato ries, Hercules, CA, USA) and 20 µg of total protein s was loaded onto 10% SDS-PAGE gels followed by transfer onto a nitrocellulose membrane. Blots were incubated with primary antibodies α-NPM1 (Abcam ), α-M YC (Cel l Signaling), α-FBXW7 ( Abcam) and an ti-mouse or anti-rabbit secondary antibodies (BD). An antibody to β-actin was used to check for equivalent protei n loading. Membranes were developed by enhanced chemiluminescenc e (Clarity Weste rn ECL substrate; Bio-Rad Laboratories ). […]
# (§2) Proteomic analysis. A supplementary table (Excel file) includes all the data of the proteomic analysis, showing all the proteins identified, not only those ablated in the treated population, but also those found with different expression levels in both populations under study, and even those that were not detected in the control population but were detected in the treated population. Follows the image of a Venn diagram showing the number of proteins detected in each of the pop ulations and the proteins that converg e […]
# NPM1 = assay: Western blot of NPM1 in OCI-AML3 cells; type: cell-based; details: for Densitometry values for NPM1: reduction: OCI-AML3, 10 μM
# Experimental: as §1
# Assay (Bio-Rad Labo rato ries, Hercules, CA, USA) and 20 µg of total protein s was loaded onto 10% SDS-PAGE gels followed by transfer onto a nitrocellulose membrane. Blots were incubated with primary antibodies α-NPM1 (Abcam ), α-M YC (Cel l Signaling), α-FBXW7 ( Abcam) and an ti-mouse or anti-rabbit secondary antibodies (BD). An antibody to β-actin was used to check for equivalent protei n loading. Membranes were developed by enhanced chemiluminescenc e (Clarity Weste rn ECL substrate; Bio-Rad Laboratories ).
# Densitometry was performed with Image Lab software, normalized to the signal of β-actin, and r-normalized with the control.
# as §2
# 2.3. NPM1 protein studies
# DNA constructs. For recombinant expression, pET28a(+) vectors encoding the native, N-end pentameric domain (residues 1- 130) and the C-end domain (residues 225- 294) constructs of NPM1 –all of which contained a N -terminal 6xHis tag– were available at the lab.4 Site directed mutagenesis was p erfo rmed by polymerase chain reaction (PCR) using the pET28a-NPM1 C-end WT vector to obtain the NPM1 C-end AML mutant construct (NPM1 C-end C+). The following primers were designed: 5’ – […]
# (1 picture or pasted object on this page, not shown here)
# [1] = Caspase-3 pathology analysis of treated mice; type: in vivo
# Experimental: Based on the encouraging results obtained in ex vivo models of AML, we further assessed the therapeutic potential of the new NPM1 inhibitor in vivo. Prior to the evaluation of the compound in an animal model of AML, in vivo pharmacokinetic studies were addressed. Following a single intraperitoneal administration of UCM-13369 at a dose of 25 mg/kg, levels of 200–600 μg/L were detected in mouse peripheral blood up to 6 h (Figure 6A). Plasma protein binding of the compound in mouse serum was measured using an equilibrium dialysis assay, indicating a bound fraction of 83 ± 1%. Next, the efficacy of the compound was evaluated in immunodeficient mice after injection of OCI-AML3-ffLuc-GFP cells as an AML animal model. […]
# (D) IHC analysis of a poptotic cells in a representative kidney
# sample from OC I-AML 3 xenograft mice treat ed with DMSO (vehicle, top) vs . UCM-
# 13369 treated mice (50 mg/kg, bottom) mice: H&E ( left) and cleav ed caspase- 3 (right).
# Scale bar: 100 μm. (E ) Dose-response curve of UCM-13369 in human renal proximal
# [2] = test system: HCT-116-derived colonospheres; assay: Formation of HCT-116-derived colonospheres (CSC tumorspheres); type: cell-based; details: Homo sapiens, HCT-116; @5 µM (footnote d); read-out: Inhibition of tumorsphere formation (%) HCT-116
# Experimental: (BD Biosciences, Franklin Lakes, NJ, USA). All cells were maintained at 37 °C in a humidified incubator in an atmosphere of 5% CO2, and passaged every 2–3 days.
# Additionally, they were cultured using RPMI media (Gibco/Life Technologies; Grand […]
# Colonospheres, mamospheres and colony formation unit assays. 30.000 cells per well of MCF-7 cells (mamos pheres), HCT-116 cells (colonospheres) and CD34+ cells from patients (colony formation units) were seeded in serum free non- adherent medium or […]
# MethoCult (Stem Cell). […]
# OCI-AML3-ffLuc-GFP cells = assay: AML xenograft mouse model (OCI-AML3-ffLuc-GFP in NSG mice); type: in vivo
# Experimental: Based on the encouraging results obtained in ex vivo models of AML, we further assessed the therapeutic potential of the new NPM1 inhibitor in vivo. Prior to the evaluation of the compound in an animal model of AML, in vivo pharmacokinetic studies were addressed. Following a single intraperitoneal administration of UCM-13369 at a dose of 25 mg/kg, levels of 200–600 μg/L were detected in mouse peripheral blood up to 6 h (Figure 6A). Plasma protein binding of the compound in mouse serum was measured using an equilibrium dialysis assay, indicating a bound fraction of 83 ± 1%. Next, the efficacy of the compound was evaluated in immunodeficient mice after injection of OCI-AML3-ffLuc-GFP cells as an AML animal model.
# An AML xenograft mouse model was used for the in vivo study of efficacy. Female 6- to 8-week-old NOD.Cg-Prkdcscid Il2rgtm1Wjl/SzJ (NSG) mice (Vivotecnia, Madrid, Spain) were inoculated intravenously by tail vein injection with OCI-AML3-ffLuc-GFP cells (1 × 10^6). Four days later, the mice were randomized into two groups of 10 animals: the first group received intraperitoneal injections of vehicle (0.9% saline solution) 5 days a week; the second group received intraperitoneal injections of 25 mg/kg or 50 mg/kg UCM-13369 five times weekly for 3 weeks. The mice were monitored for tumor burden, distribution, and engraftment every week by IVIS whole-body bioluminescence imaging. Bioimaging of MM burden in vivo was performed by IVIS Imaging system (Caliper Life Science). A solution of luciferin (D-luciferin monosodium salt, Thermo Fisher) in PBS was injected (150 mg/kg, ip), and luminescence signal was determined after 10 min. The data were analyzed using the Living Image 4.2 (Caliper Life Science) software.
compound,measurement,setting,value
"COc1ccc(C2Cc3[nH]c4ccccc4c3C(CCNCC3CC3)C2N)cc1 (centres unmarked) [4b, 4-{2-[(Cyclopropylmethyl)amino]ethyl}-2-(4-methoxyphenyl)-2,3,4,9-tetrahydro-1H-carbazol-3-amine]",FBXW7 levels (in words),FBXW7,upregulated
same,Densitometry values for NPM1: reduction,NPM1; 24 h,50%
same,Densitometry values for NPM1: reduction,NPM1; 48 h,70%
same,NPM1 levels (in words),"NPM1; OCI-AML3, qPCR and Western blot",reduced levels
same,Caspase-3 cleavage in kidney (in words),[1]; 50 mg/kg,some caspase-3 cleavage
same,"Toxicity in bone marrow and liver, caspase-3 pathology (in words)",[1]; data not shown,absence of toxicity
same,inhibition at 5 µM,[2],100%
same,Reduction in tumor mass (in words),"OCI-AML3-ffLuc-GFP cells; 25 mg/kg, data not shown",negligible
same,"Tumor cell infiltration of bone marrow, H&E staining (in words)",OCI-AML3-ffLuc-GFP cells; 50 mg/kg,less tumor cell infiltration
same,"Survival, treated vs untreated animals (in words)","OCI-AML3-ffLuc-GFP cells; 50 mg/kg, Kaplan-Meier, listed as UCM-13369",no significant differences; also recorded: no difference
same,Tumor infiltration vs untreated group at end point (in words),"OCI-AML3-ffLuc-GFP cells; 50 mg/kg, bioluminescence",reduction of tumor infiltration
